Values of other authors in US8557989B2, “Electrochemical affinity biosensor system and methods” (priority 2003, dated 2013).

Target: glucose oxidase (Aspergillus niger, UniProt P13006)
Settings: with glucose oxidase

glucose oxidase, sequence (P13006 17-605): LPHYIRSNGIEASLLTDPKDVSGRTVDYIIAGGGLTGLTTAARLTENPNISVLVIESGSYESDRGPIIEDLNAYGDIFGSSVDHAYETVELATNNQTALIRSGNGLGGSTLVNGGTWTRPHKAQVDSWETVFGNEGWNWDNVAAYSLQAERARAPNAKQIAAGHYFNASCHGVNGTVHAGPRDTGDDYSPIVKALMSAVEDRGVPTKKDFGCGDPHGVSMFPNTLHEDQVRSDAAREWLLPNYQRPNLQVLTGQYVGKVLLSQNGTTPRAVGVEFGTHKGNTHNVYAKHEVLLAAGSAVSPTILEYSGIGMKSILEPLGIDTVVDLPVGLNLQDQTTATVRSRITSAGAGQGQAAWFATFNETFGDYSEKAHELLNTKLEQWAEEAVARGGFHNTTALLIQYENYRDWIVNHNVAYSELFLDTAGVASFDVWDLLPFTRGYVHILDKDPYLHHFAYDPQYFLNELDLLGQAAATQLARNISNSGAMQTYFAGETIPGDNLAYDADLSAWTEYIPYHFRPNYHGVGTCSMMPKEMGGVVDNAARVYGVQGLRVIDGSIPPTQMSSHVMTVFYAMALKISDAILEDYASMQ

bis(2,2′-bipyridyl) imidazole chloro osmium (III) dichloride [osmium free mediator]
mediation kinetics, times faster than ferricyanide: about 500 times
